Converted amounts (≈) assume the structure as drawn.
How the values were obtained:
Format in all cases: cell-based
S. aureus ATCC 13709 = assay: MIC, antibacterial potency, S. aureus; conditions: S. aureus (SA); in µg/mL
S. pneumoniae ATCC 51916 = assay: MIC, S. pneumoniae; conditions: S. pneumoniae (Spn52); in µg/mL
E. coli 8 ATCC 25922 = assay: MIC, E. coli 8 (wt); conditions: E. coli 8 (EC8)

| Compound | MIC, SA (S. aureus ATCC 13709) | MIC Spn52 (S. pneumoniae ATCC 51916) | MIC EC8 (E. coli 8 ATCC 25922) [µg/mL] |
| --- | --- | --- | --- |
| CCc1[nH]c2nc(Oc3ccc4c(N5CC(N)C5)ncnc4c3)nc(Oc3cccc(C#N)c3)c2c1Br [700,944] | 8 | 8 | > 64 |
| CCc1[nH]c2nc(Oc3cncc(C#N)c3)nc(Oc3cncc(OC)c3)c2c1Br [700,945] | <=0.5 | <=0.5 | > 64 |
| CCc1[nH]c2nc(Oc3cccc(C#N)c3)nc(C(C)N)c2c1Cl (stereo not drawn) [700,946] | >64 | >64 | > 64 |
| CC(=O)c1nc(Oc2cccc(C#N)c2)nc2[nH]c(C(C)O)c(Cl)c12 (stereo not drawn) [700,947] | >64 | 64 | > 64 |
| CCc1[nH]c2nc(Oc3ccc4nccnc4c3)nc(N3CC(O)C3)c2c1Cl [700,948] | <=0.5 | 4 | > 16 |
| CCc1[nH]c2nc(Oc3ccc4sc(C)nc4c3)nc(Oc3cccc(C#N)c3)c2c1Br [700,949] | <=0.5 | 4 | > 64 |
| CCc1[nH]c2nc(Oc3cccc(C#N)c3)nc(C(C)N3CCC(N)C3)c2c1Cl (stereo not drawn) [700,950] | >64 | >64 | > 64 |
| CCc1[nH]c2nc(Oc3cccc(C#N)c3)nc(C(C)N3CC4C(N)C4C3)c2c1Cl (stereo not drawn) [700,951] | >16 | >16 | > 16 |
| CCc1[nH]c2nc(Oc3cccc(C#N)c3)nc(C(C)N3CC4C(C3)C4(N)C(N)=O)c2c1Cl (stereo not drawn) [700,952] | 64 | 64 | > 64 |
| CCc1[nH]c2nc(Oc3cccc(C#N)c3)nc(C(C)NCCO)c2c1Cl (stereo not drawn) [700,953] | >32 | >32 | > 32 |
| CCc1[nH]c2nc(Oc3cccc(C#N)c3)nc(C(C)(NO)NO)c2c1Cl [700,954] | >32 | >32 | > 32 |
| CCc1[nH]c2nc(Sc3ccc4c(N5CC[C@@H](N)C5)nc(C(=O)O)nc4c3)nc(N3CC[C@@H](N)C3)c2c1Cl [700,955] | 8 | >64 | 16 (≈ 28.9 µM) |
| CCc1[nH]c2nc(Sc3ccc4c(N5CC(CN)C5)nc(C)nc4c3)nc(N3CC4C(C3)C4(N)C(N)=O)c2c1Cl (stereo not drawn) [700,956] | 8 | 32 | > 64 |
| CCc1[nH]c2nc(Sc3cnc4nccnc4c3)nc(N3CC4CC(O)C4C3)c2c1Cl (stereo not drawn) [700,957] | <=0.5 | 1 | > 32 |
| CCc1[nH]c2nc(Sc3cnc4cccnc4c3)nc(N3C[C@@H]4NCCO[C@H]4C3)c2c1Cl [700,958] | 2 | 4 | > 32 |
| CCc1[nH]c2nc(Sc3cnc4cccnc4c3)nc(N3C[C@@H]4NCCO[C@@H]4C3)c2c1Cl [700,959] | 2 | 2 | > 64 |
| CCc1[nH]c2nc(Sc3ccc4c(N5CC(N)C5)ncnc4c3)nc(N3C[C@@H]4[C@H](C3)[C@@]4(N)C(N)=O)c2c1Cl [700,960] | 2 | 2 | > 32 |
| CCc1[nH]c2nc(Oc3ccc4nccnc4c3)nc(C(C)=O)c2c1Cl [700,961] | 1 | 1 | > 64 |
| CCc1[nH]c2nc(Oc3ccc4nccnc4c3)nc(N(C)C)c2c1Cl [700,962] | <=0.5 | 2 | > 8 |
| CCc1[nH]c2nc(Oc3ccc4nccnc4c3)nc(N3CC(N)C3)c2c1Cl [700,963] | 1 | 4 | > 64 |
| CCc1[nH]c2nc(Oc3cnc4c(c3)ncn4C)nc(Oc3cncc(OC)c3)c2c1Br [700,964] | <=0.5 | <=0.5 | > 64 |
| CCc1[nH]c2nc(Oc3ccc4nccnc4c3)nc(Oc3cncnc3)c2c1Br [700,965] | <=0.5 | <=0.5 | 64 (≈ 138 µM) |
| CCc1[nH]c2nc(Oc3cncc(C#N)c3)nc(Oc3cccc(OC)c3)c2c1Br [700,966] | <=0.5 | <=0.5 | > 64 |
| CCc1[nH]c2nc(Sc3cncnc3)nc(N3CC4C(C3)C4(N)C(N)=O)c2c1Cl (stereo not drawn) [700,967] | <=0.5 | 4 | > 64 |
| CCc1[nH]c2nc(Sc3cnc(N)nc3)nc(N3CC4C(C3)C4(N)C(N)=O)c2c1Cl (stereo not drawn) [700,968] | 2 | >64 | > 64 |
| CCc1[nH]c2nc(Sc3cncc(C#N)c3)nc(N3CC4C(C3)C4(N)C(N)=O)c2c1Cl (stereo not drawn) [700,969] | <=0.5 | 2 | > 64 |
| CCc1[nH]c2nc(Sc3cc(C(=O)O)c4cnccc4c3)nc(N3CC[C@@H](N)C3)c2c1Cl [700,970] | 8 | 32 | > 64 |

| Compound | MIC, SA (S. aureus ATCC 13709) | MIC Spn52 (S. pneumoniae ATCC 51916) | MIC EC8 (E. coli 8 ATCC 25922) [µg/mL] |
| --- | --- | --- | --- |
| CCc1[nH]c2nc(Sc3ccc4cc5c([n+]([O-])c4c3)CCNC5)nc(N3CC4C(C3)C4(N)C(N)=O)c2c1Cl (stereo not drawn) [700,971] | <=0.5 | 2 | > 64 |
| CCc1[nH]c2nc(Sc3ccc4cc5c([n+]([O-])c4c3)CCNC5)nc(N3CC4C(N)C4C3)c2c1Cl (stereo not drawn) [700,972] | <=0.5 | 1 | 4 (≈ 7.87 µM) |
| CCc1[nH]c2nc(Sc3ccc4c(c3)C(=O)NC4)nc(N3CC4C(C3)C4(N)C(N)=O)c2c1Cl (stereo not drawn) [700,973] | <=0.5 | 2 | > 64 |
| CCc1[nH]c2nc(Sc3ccc4c(c3)C(=O)NC4)nc(N3CC4C(N)C4C3)c2c1Cl (stereo not drawn) [700,974] | <=0.5 | 2 | 32 (≈ 72.6 µM) |
| NC(=O)C1(N)C2CN(c3nc(Sc4cnc5nccnc5c4)nc4[nH]c(C5CC5)c(Cl)c34)CC21 (stereo not drawn) [700,975] | 8 | 8 | > 64 |
| NC1C2CN(c3nc(Sc4cnc5nccnc5c4)nc4[nH]c(C5CC5)c(Cl)c34)CC12 (stereo not drawn) [700,976] | 4 | 2 | 8 (≈ 17.7 µM) |
| N[C@@H]1CCN(c2nc(Sc3cnc4nccnc4c3)nc3[nH]c(C4CC4)c(Cl)c23)C1 [700,977] | 16 | 4 | 8 (≈ 18.2 µM) |
| CC(C)(C)OC(=O)N[C@@H]1CCN(c2nc(Sc3cnc4nccnc4c3)nc3[nH]c(C4CC4)c(Cl)c23)C1 [700,978] | >64 | >64 | > 64 |
| CCc1[nH]c2nc(Oc3ccc4nccnc4c3)nc(Oc3ccc4c(N)nc(N)nc4c3)c2c1Br [700,979] | <=0.5 | 4 | > 64 |
| CCc1[nH]c2nc(Oc3ccc4nccnc4c3)nc(N3CC4C(C3)C4(N)C(N)=O)c2c1Br (stereo not drawn) [700,980] | <=0.5 | 2 | > 32 |
| CCc1[nH]c2nc(Oc3cncc(C#N)c3)nc(N3CC4C(C3)C4(N)C(N)=O)c2c1Cl (stereo not drawn) [700,981] | 16 | 16 | > 32 |
| CCc1[nH]c2nc(Oc3cncc(OC)c3)nc(Oc3cccc(C#N)c3)c2c1Br [700,982] | <=0.5 | <=0.5 | > 64 |
| CCc1[nH]c2nc(Sc3ccc4c(N5CCC(N)CC5)nc(C)nc4c3)nc(N3CC[C@@H](N)C3)c2c1Cl [700,983] | 32 | 32 | 32 (≈ 59.5 µM) |
| CCc1[nH]c2nc(Sc3ccc4c(N5CCC(N)CC5)nc(C)nc4c3)nc(N3CC4C(N)C4C3)c2c1Cl (stereo not drawn) [700,984] | 4 | 8 | 8 (≈ 14.5 µM) |
| CCc1[nH]c2nc(Sc3cnc4nccnc4c3)nc(N3CCC4(CC4N)C3)c2c1Cl (stereo not drawn) [700,986] | 1 | 2 | 64 (≈ 141 µM) |
| CCc1[nH]c2nc(Oc3ccc4nccnc4c3)nc(Oc3cncc(C#N)c3)c2c1Br [700,987] | <=0.5 | <=0.5 | > 64 |
| CCc1[nH]c2nc(Oc3ccc4nccnc4c3)nc(Oc3cnc4c(c3)ncn4C)c2c1Br [700,988] | <=0.5 | <=0.5 | > 64 |
| CCc1[nH]c2nc(Oc3ccc4nccnc4c3)nc(N3CC4C(C3)C4(N)C(N)=O)c2c1Cl (stereo not drawn) [700,989] | <=0.5 | <=0.5 | > 64 |
| CCc1[nH]c2nc(Sc3ccc4cc5c([n+]([O-])c4c3)CCNC5)nc(N3CCc4nc(N)sc4C3)c2c1Cl [700,990] | 1 | 16 | > 64 |
| CCc1[nH]c2nc(Sc3ccc4cccnc4c3)nc(N3CC[C@@H](N)C3)c2c1Cl [700,991] | 1 | 2 | 32 (≈ 75.3 µM) |
| CCc1[nH]c2nc(Sc3ccc4cccnc4c3)nc(N3CC4C(N)C4C3)c2c1Cl (stereo not drawn) [700,992] | <=0.5 | <=0.5 | > 64 |
| CCc1[nH]c2nc(Sc3ccc4ccc[n+]([O-])c4c3)nc(N3CC[C@@H](N)C3)c2c1Cl [700,993] | <=0.5 | 2 | 16 (≈ 36.3 µM) |
| CCc1[nH]c2nc(Sc3ccc4ccc[n+]([O-])c4c3)nc(N3CC4C(N)C4C3)c2c1Cl (stereo not drawn) [700,994] | <=0.5 | <=0.5 | 8 (≈ 17.7 µM) |
| NC1CN(c2ncnc3cc(Sc4nc(N5CC[C@@H](N)C5)c5c(Cl)c(C6CC6)[nH]c5n4)ccc23)C1 [700,995] | >64 | >64 | 64 (≈ 126 µM) |
| CCc1[nH]c2nc(Oc3cnc4c(c3)ncn4C)nc(Oc3cncc(C#N)c3)c2c1Br [700,996] | <=0.5 | <=0.5 | > 64 |
| CCc1[nH]c2nc(Oc3ccc4nccnc4c3)nc(Oc3ccc4c(c3)ncn4C)c2c1Br [700,998] | <=0.5 | 1 | > 64 |
| CCc1[nH]c2nc(Oc3cncc(C#N)c3)nc(N3CC[C@@H](NC(C)=O)C3)c2c1Cl [700,999] | 2 | 2 | > 64 |
